Laboratory results published in patent publication US11572590B2, “Methods for evaluating tumor cell spheroids using 3D microfluidic cell culture device” (Dana-Farber Cancer Institute, Inc., priority 2017, dated 2023).
Where two headings read alike, the source gives them in different places.

Key:
Test in all cases: SelectScreen Kinase Profiling, single point inhibition and IC50 for off-target kinases
Format in all cases: biochemical
[1] = molecular target: off-target kinases (Homo sapiens, UniProt P10721, D816V); conditions: KIT D816V, LanthaScreen Binding
off-target kinases (Homo sapiens, UniProt P10721, D816V), sequence (P10721 26-976 D816V): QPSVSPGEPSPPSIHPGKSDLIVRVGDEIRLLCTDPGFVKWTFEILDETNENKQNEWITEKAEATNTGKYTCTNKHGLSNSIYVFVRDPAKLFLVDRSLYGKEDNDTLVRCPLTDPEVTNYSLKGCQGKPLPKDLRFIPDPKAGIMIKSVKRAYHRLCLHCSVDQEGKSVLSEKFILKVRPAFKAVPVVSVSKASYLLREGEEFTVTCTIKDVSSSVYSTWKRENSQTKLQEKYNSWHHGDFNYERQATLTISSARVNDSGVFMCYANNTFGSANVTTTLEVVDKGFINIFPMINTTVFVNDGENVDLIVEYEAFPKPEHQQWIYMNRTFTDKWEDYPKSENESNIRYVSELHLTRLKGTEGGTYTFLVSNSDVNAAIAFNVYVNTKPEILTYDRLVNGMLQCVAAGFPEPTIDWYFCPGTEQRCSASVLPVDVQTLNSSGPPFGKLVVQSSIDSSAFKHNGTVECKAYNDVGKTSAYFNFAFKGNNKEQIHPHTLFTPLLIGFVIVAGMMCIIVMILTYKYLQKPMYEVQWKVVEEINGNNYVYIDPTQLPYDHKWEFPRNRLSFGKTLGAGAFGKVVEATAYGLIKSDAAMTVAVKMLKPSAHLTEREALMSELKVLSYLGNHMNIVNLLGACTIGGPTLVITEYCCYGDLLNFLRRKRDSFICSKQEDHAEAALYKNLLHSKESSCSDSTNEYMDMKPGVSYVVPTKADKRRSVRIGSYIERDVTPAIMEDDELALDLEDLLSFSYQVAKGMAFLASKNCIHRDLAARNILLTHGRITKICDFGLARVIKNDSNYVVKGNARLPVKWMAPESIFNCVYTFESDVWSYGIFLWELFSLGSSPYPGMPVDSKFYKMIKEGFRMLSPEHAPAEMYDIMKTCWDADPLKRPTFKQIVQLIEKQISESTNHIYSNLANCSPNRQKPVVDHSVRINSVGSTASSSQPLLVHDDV

[2] = molecular target: off-target kinases (Homo sapiens, UniProt P10721, Y823D); conditions: KIT Y823D, LanthaScreen Binding
off-target kinases (Homo sapiens, UniProt P10721, Y823D), sequence (P10721 26-976 Y823D): as the sequence (P10721 26-976 D816V) above, with V791D, Y798D counted along it

[3] = molecular target: off-target kinases (Homo sapiens, UniProt P37173); conditions: TGFBR2, LanthaScreen Binding
off-target kinases (Homo sapiens, UniProt P37173), sequence (P37173 23-567): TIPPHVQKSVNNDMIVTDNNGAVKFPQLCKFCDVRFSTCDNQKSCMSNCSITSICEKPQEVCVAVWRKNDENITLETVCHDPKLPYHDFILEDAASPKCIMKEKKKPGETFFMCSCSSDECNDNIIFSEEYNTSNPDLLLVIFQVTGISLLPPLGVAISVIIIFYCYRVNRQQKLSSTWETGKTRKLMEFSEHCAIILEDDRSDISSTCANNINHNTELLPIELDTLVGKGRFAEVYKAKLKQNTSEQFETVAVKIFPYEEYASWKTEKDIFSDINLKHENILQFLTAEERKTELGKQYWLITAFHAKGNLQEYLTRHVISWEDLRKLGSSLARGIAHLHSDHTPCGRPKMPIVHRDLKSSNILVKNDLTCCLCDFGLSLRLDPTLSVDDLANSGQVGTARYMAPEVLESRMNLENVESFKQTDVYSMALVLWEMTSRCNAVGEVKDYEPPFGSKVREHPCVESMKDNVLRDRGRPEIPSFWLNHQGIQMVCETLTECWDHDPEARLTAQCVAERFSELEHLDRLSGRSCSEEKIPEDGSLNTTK

[4] = molecular target: T1, off-target kinases (Homo sapiens, UniProt P51817); conditions: PRKX, ZLYTE, ATP Km app
T1 sequence (P51817 1-358): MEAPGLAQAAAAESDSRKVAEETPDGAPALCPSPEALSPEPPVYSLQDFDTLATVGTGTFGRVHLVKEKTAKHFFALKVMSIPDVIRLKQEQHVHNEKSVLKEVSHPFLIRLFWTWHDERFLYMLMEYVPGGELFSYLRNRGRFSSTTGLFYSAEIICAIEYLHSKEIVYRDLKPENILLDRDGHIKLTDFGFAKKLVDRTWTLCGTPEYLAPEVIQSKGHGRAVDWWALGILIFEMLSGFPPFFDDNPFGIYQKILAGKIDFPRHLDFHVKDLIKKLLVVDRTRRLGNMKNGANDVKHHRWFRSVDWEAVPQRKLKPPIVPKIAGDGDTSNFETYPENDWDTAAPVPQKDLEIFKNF

[5] = molecular target: T2, off-target kinases (Homo sapiens, UniProt Q13237); conditions: PRKG2 (PKG2), ZLYTE, ATP Km app
T2 sequence (Q13237 1-762): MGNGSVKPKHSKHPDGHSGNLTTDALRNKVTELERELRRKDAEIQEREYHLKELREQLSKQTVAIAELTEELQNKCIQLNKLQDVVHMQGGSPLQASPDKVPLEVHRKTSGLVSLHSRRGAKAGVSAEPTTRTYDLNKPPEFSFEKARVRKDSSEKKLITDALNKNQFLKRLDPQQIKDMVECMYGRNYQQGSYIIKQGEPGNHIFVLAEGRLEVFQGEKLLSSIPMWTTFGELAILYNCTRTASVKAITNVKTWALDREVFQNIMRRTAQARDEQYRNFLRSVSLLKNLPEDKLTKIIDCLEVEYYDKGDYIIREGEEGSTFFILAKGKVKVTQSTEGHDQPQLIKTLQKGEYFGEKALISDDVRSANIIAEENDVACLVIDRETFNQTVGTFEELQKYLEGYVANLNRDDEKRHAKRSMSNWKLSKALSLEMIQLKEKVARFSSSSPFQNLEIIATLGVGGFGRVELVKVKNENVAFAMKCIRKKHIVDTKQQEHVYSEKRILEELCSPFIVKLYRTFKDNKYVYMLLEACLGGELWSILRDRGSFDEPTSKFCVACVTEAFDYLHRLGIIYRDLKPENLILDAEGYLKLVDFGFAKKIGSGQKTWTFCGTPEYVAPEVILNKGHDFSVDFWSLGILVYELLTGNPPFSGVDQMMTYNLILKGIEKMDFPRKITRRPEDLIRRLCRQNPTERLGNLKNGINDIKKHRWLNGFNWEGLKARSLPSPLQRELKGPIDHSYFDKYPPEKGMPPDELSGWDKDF

[6] = molecular target: off-target kinases (Homo sapiens, UniProt Q7KZI7); conditions: MARK2, ATP Km app, ZLYTE
off-target kinases (Homo sapiens, UniProt Q7KZI7), sequence (Q7KZI7 whole entry): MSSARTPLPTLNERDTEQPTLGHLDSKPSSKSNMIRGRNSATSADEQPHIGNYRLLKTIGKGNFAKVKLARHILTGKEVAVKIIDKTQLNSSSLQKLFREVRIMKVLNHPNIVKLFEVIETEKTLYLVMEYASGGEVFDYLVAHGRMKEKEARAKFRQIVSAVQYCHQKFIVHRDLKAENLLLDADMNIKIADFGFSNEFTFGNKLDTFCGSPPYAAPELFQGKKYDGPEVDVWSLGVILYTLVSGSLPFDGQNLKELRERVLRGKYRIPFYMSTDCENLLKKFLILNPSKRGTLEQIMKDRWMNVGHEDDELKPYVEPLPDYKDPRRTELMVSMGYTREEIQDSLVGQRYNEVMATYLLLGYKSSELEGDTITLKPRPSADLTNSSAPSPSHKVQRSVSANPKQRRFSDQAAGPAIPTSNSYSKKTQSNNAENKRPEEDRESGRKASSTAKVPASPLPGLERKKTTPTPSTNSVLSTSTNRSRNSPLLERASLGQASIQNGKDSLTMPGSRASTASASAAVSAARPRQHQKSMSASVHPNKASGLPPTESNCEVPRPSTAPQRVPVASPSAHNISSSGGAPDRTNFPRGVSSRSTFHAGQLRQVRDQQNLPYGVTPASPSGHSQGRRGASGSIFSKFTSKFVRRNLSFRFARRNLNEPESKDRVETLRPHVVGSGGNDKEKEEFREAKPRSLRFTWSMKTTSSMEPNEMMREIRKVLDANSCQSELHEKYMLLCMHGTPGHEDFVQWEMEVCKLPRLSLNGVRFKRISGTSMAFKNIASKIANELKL

[7] = molecular target: off-target kinases (Homo sapiens, UniProt Q9BWU1); conditions: CDK11 (Inactive); Cmpd1 1000 μM; LanthaScreen Binding
off-target kinases (Homo sapiens, UniProt Q9BWU1), sequence (Q9BWU1 whole entry): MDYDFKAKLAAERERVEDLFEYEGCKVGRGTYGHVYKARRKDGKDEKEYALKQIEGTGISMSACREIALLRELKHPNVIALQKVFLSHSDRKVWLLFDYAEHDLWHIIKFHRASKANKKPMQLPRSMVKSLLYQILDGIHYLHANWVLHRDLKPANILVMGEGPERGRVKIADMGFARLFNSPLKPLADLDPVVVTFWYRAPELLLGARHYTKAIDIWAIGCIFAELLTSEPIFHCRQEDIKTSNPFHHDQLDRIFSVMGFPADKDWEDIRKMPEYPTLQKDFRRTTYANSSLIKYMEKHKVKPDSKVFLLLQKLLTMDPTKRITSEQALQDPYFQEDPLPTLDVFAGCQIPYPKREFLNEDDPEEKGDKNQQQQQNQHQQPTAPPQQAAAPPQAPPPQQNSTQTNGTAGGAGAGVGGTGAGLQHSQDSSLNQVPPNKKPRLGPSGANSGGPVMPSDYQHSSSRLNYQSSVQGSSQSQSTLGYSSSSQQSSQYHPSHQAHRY

N#Cc1cc(-c2ncnc(Nc3ccc(N4CCN(C5COC5)CC4)cc3)n2)ccc1OC1CCOCC1 [Compound 1, 5-(4-((4-(4-(oxetan-3-yl)piperazin-1-yl)phenyl)amino)-1,3,5-triazin-2-yl)-2-((tetrahydro-2H-pyran-4-yl)oxy)benzonitrile]
inhibition ([1]; read-out: % Inhibition 1): 83%
inhibition ([1]; read-out: % Inhibition 2): 83%
inhibition ([1]; read-out: % Inhibition Avg): 83%
inhibition ([2]; read-out: % Inhibition 1): 47%
inhibition ([2]; read-out: % Inhibition 2): 59%
inhibition ([2]; read-out: % Inhibition Avg): 53%
inhibition ([3]; read-out: % Inhibition 1): 92%
inhibition ([3]; read-out: % Inhibition 2): 95%
inhibition ([3]; read-out: % Inhibition Avg): 93%
inhibition ([4]; read-out: % Inhibition 1): 22%
inhibition ([4]; read-out: % Inhibition 2): 30%
inhibition ([4]; read-out: % Inhibition Avg): 26%
inhibition ([5]; read-out: % Inhibition 1): 16%
inhibition ([5]; read-out: % Inhibition 2): 13%
inhibition ([5]; read-out: % Inhibition Avg): 14%
inhibition ([6]; read-out: % Inhibition 1): 86%
inhibition ([6]; read-out: % Inhibition 2): 82%
inhibition ([6]; read-out: % Inhibition Avg): 84%
% Inhibition 1 [7]: −1%
% Inhibition 2 [7]: −7%
% Inhibition Avg [7]: −4%
